Experimental data reported in patent publication US7635779B2, “Oxy substituted flavones as antihyperglycemic and antidyslipidemic agents” (Council of Scientific & Industrial Research, priority 2004, dated 2009).
Like-named read-outs stand apart in the source and are kept apart here.

How the values were obtained:
sucrose loaded rat = assay: Sucrose loaded rat model (SLM), antihyperglycemic activity; format: in vivo; settings: for inhibition in vivo at 100 mg/kg: Rattus norvegicus, po, 2 h, read-out: % Fall in blood glucose levels, SLM
Experimental: Male albino rats of Charles Foster/Wistar strain of average body weight 160±20 g were selected for this study. The blood glucose level of each animal was checked by glucometer using glucostrips (Boehringer Mannheim) after 16 h starvation. Animals showing blood glucose levels between 3.33 to 4.44 mM (60 to 80 mg/dl) were divided into groups of five to six animals in each. Animals of experimental group were administered suspension of the desired synthetic compound orally (made in 1.0% gum acacia) at a dose of 100-mg/kg-body weight. Animals of control group were given an equal amount of 1.0% gum acacia. A sucrose load (10.0 g/kg) was given to each animal orally exactly after 30 min post administration of the test sample/vehicle. Blood glucose profile of each rat was again determined at 30, 60, 90 and 120 min post administration of sucrose by glucometer. Food but not water was withheld from the cages during the course of experimentation. Quantitative glucose tolerance of each animal was calculated by Area Under Curve (AUC) method (Prism Software). Comparing the AUC of experimental and control groups determined the percentage antihyperglycemic activity. Statistical comparison was made by Dunnett's test.

[1] = test system: streptozotocin-induced diabetic rats; assay: Sucrose-challenged streptozotocin-induced diabetic rats (STZ-S); format: in vivo, rat; settings: 100 mg/kg oral
Experimental: Male albino rats of Sprague Dawley strain of body weight 160+20 g were selected for this study. Streptozotocin (Sigma, USA) was dissolved in 100 mM citrate buffer pH 4.5 and calculated amount of the fresh solution was injected to overnight fasted rats (45 mg/kg) intraperitoneally. Blood glucose level was checked 48 h later by glucostrips and animals showing blood glucose values between 144 to 270 mg/dl (8 to 15 mM) were included in the experiment and termed diabetic. The diabetic animals were divided into groups consisting of five to six animals in each group. Animals of experimental groups were administered suspension of the desired test samples orally (made in 1.0% gum acacia) at a dose of 100-mg/kg-body weight. Animals of control group were given an equal amount of 1.0% gum acacia. A sucrose load of 2.5-g/kg body weight was given after 30 minutes of compound administration. After 30 minutes of post sucrose load blood glucose level was again checked by glucostrips at 30, 60, 90, 120, 180, 240, 300 min and at 24 h, respectively. Animals not found diabetic after 24 hours post treatment of the test sample were not considered and omitted from the calculations and termed as non-responders. […] Food but not water was withheld from the cages during the experimentation. Comparing the AUC of experimental and control groups determined the percent antihyperglycemic activity. Statistical comparison between groups was made by Student's ‘t’ test.
As depicted in the FIGURE, a dose response curve of 34 was obtained by administering different doses of test compound to streptozotocin-induced diabetic rats (Table 6). […]

[2] = test system: triton WR-1339 induced hyperlipidemic rats; assay: Triton model, antidyslipidemic activity; format: in vivo, rat; settings: Rattus norvegicus, 100 mg/kg oral, plasma after 18 h
Experimental: Male Charles foster rats weighing 200-225 g were divided into control, hyperlipidemic and hyperlipidemic plus drug treated groups containing six animals in each group. Hyperlipidemia was induced by administration of triton WR-1339 (200 mg/kg i.p.). All animals were maintained on a special pellet diet and water ad libitum. Compounds and standard drug were macerated with 0.2% aqueous gum acacia suspension. The suspension was fed orally at the dose of 100 mg/kg simultaneously with triton in drug treated group. The animals of control group received the same amount of gum acacia by similar route of administration. At the end of the experiment, after 18 h, blood was withdrawn from retro orbital plexus and plasma was used for the assay of total cholesterol, phospholipid and triglycerides.
Cholesterol was estimated using the kit provided by Roche Diagnostics. Cholesterol esters are enzymatically hydrolyzed by cholesterol esterase (CE) to cholesterol and free fatty acids. Free cholesterol, including that originally present, is then oxidized by cholesterol oxidase (CO) to cholest-4-en-3-one and hydrogen peroxide. The hydrogen peroxide combines with hydroxy benzoic acid (HBA) and 4-aminoantipyrine (4AAA) in the presence of peroxidase (POD) to form a chromophore (quinoneimine dye), which may be quantitated at 500-505 nm. The intensity of red colour formed is directly proportional to the concentration of total cholesterol in the specimen and measured spectrophotometrically (Searcy, C. L. Diagnostic Biochemistry, 1969, McGraw Hill, New York; Ellefson, R. D.; Caraway, W. T. Fundamentals of clinical chemistry, 1976, Ed Tietz N W, 506-515.)
Triglycerides were estimated using the kit provided by Roche Diagnostics. Lipoprotein lipase hydrolyses triglycerides to yield glycerol and fatty acids. Glycerol kinase converts glycerol to glycerol-3-phosphate, which is oxidized by glycerol phosphate oxidase to dihydroxy acetone phosphate and hydrogen peroxide. In the presence of peroxidase, hydrogen peroxide oxidatively couples with 4-aminoantipyrine and 4-chloro phenol to produce red quinonimine dye. The intensity of red colour formed is directly proportional to the concentration of triglycerides in the specimen and is measured by photometrically (Wahlefeld, A. W.; Bergmeyer, H. U. Ed. Methods of enzymatic analysis, 2nd English edition, New York, N.Y., Academic press inc, 1831-1840.).
Serum (0.2 mL) and perchloric acid (1.0 mL) was digested at 180° C. for 1-1.5 h till the solution became colorless. The liberated inorganic phosphate (Pi) was measured by the method of Fiske and Subbarow (Fiske, C. H.; Subbarow, V. J. Biol. Chem. 1925, 66, 375.). 1 mL of 2.5% ammonium molybdate (prepared in 5 N sulphuric acid) and 0.5 mL reducing agent (4-amino naphthol sulphonic acid, 0.2%), sodium metabisulphite (2.4% w/v in distilled water) was added to the above tubes and mixed well. The reaction mixture was […] with 2.5 mL of triple distilled water and kept at 60° C. in water bath for 20 min. For standard, an appropriate amount of potassium dihydrogen phosphate dissolved in triple distilled water containing 2-10 μg phosphorous (Pi) was run simultaneously with the experiment tubes. The optical density of the blue colour was recorded at 620 nm against reagent blank. The values of Pi were converted into phospholipid by multiplying with 25 (a constant calibrated from Pi value of lecithin).

[3] = phospholipid, read-out: % Fall in lipid levels (Triton model) PL
[4] = total cholesterol, read-out: % Fall in lipid levels (Triton model) TC
[5] = triglycerides, read-out: % Fall in lipid levels (Triton model) TG

| Compound | inhibition in vivo at 100 mg/kg (sucrose loaded rat) [%] | % Fall in blood glucose levels, STZ-S 5 h [1] | % Fall in blood glucose levels, STZ-S 24 h [1] | inhibition in vivo at 100 mg/kg [2, 3] [%] | inhibition in vivo at 100 mg/kg [2, 4] [%] | inhibition in vivo at 100 mg/kg [2, 5] [%] | melting point | % Fall in blood glucose levels, SLM (sucrose loaded rat; 100 mg/kg oral, AUC vs control) |
| --- | --- | --- | --- | --- | --- | --- | --- | --- |
| O=c1cc(-c2cc(OCc3ccccc3)cc(OCc3ccccc3)c2)oc2cc(OCC(O)CN3CCN(c4ccccc4)CC3)ccc12 (stereo not shown) [Compound 36, 3′,5′-Dibenzyloxy-7-[2-hydroxy-3-(4-phenylpiperazin-1-yl)-propoxy]-flavone] | 34.6 | NIL | 2.46% | 21 | 24 | 17 | 168 to 170 °C |  |
| COc1cc(-c2cc(=O)c3ccc(OCC(O)CNC(C)C)cc3o2)cc(OC)c1OC (stereo not shown) [Compound 41, 7-(2-Hydroxy-3-iso-propylamino-propoxy)-3′,4′,5′-trimethoxy-flavone] | 20.7 | 17.4% | 19.1% | 16 | 18 | 19 | 106 to 107 °C |  |
| CC(C)(C)NCC(O)COc1ccc2oc(-c3ccc(OCc4ccccc4)c(OCc4ccccc4)c3)cc(=O)c2c1 (stereo not shown) [Compound 39, 6-(3-tert-Butylamino-2-hydroxy-propoxy)-3′,4′-dibenzyloxy-flavone] | 21.8 | 14.9% | 0.36% | 12 | 21 | 17 | 156 to 157 °C |  |
| CC(C)(C)NCC(O)COc1ccc2c(=O)cc(-c3cc(O)cc(O)c3)oc2c1 (stereo not shown) [Compound 48, 7-(3-tert-Butylamino-2-hydroxy-propoxy)-3′,5′-dihydroxy-flavone] | 19.1 | NIL | NIL | 4 | 17 | 16 | 153 °C (dec.) |  |
| CC(C)(C)NCC(O)COc1ccc2c(=O)cc(-c3ccc(OCc4ccccc4)c(OCc4ccccc4)c3)oc2c1 (stereo not shown) [Compound 37, 7-(3-tert-Butylamino-2-hydroxy-propoxy)-3′,4′-dibenzyloxy-flavone] |  |  |  | 12 | 23 | 16 | 159 to 161 °C | NIL |
| COc1cc(-c2cc(=O)c3ccc(OCC(O)CN4CCN(c5ccccc5)CC4)cc3o2)cc(OC)c1OC (stereo not shown) [Compound 42, 7-[2-Hydroxy-3-(4-phenylpiperazin-1-yl)-propoxy]-3′,4′,5′-trimethoxy-flavone] | 5.64 |  |  | 8 | 19 | 23 | 170 to 171 °C |  |
| COc1cc(OC)cc(-c2cc(=O)c3ccc(OCC(O)CNC(C)C)cc3o2)c1 (stereo not shown) [Compound 44, 3′,5′-Dimethoxy-7-[2-hydroxy-3-iso-propylamino-propoxy]-flavone] | 1.36 |  |  | 21 | 17 | 24 | 155 to 156 °C |  |
